Data published in patent US20250325662A1, “METHODS OF TREATING AND PREDICTING NON-RESPONSE TO ANTI-TNF TREATMENT IN SUBJECTS WITH GASTROINTESTINAL TRACT DISEASES” (BT Bidco, Inc., priority 2020, published 2025).
Counter-ions that a name gives are not always drawn.

Tested on: IL-6, GM-CSF, IL-15, IL-2, IL-12, IL-13, TNF-α, and INF-γ

## C[C@@H]1CCN(C(=O)CC#N)C[C@@H]1N(C)c1ncnc2[nH]ccc12 [tofacitinib citrate]
PO or IC administration, 1 h and 3 h post-treatment
  IL-6 expression in plasma: inhibition of IL-6 expression
All IC treated groups and high dose PO group (45 mg/kg)
  inhibition of IL-6 expression in colon tissue: sustained through 24 h post-dose
Low dose PO group (15 mg/kg), by 12 h post-dose
  IL-6 inhibition in colon tissue: Recovery from IL-6 inhibition
